Results reported in ChEMBL document CHEMBL4152338, “Design, synthesis and screening of 1, 2, 4-triazinone derivatives as potential antitumor agents with apoptosis inducing activity on MCF-7 breast cancer cell line” (Eur J Med Chem, 2018).
The source made the active and inactive calls. The calls are words filed in the database; no cut-off is given here.

How the values were obtained:
[1] = tested on: MCF7; assay: Antiproliferative activity against human MCF7 cells after 48 hrs by MTT assay; type: functional, cell-based; details: MCF7, 48 h
[2] = tested on: MCF7; assay: Cell cycle arrest in human MCF7 cells assessed as accumulation at G2 phase at IC50 after 24 hrs by propidium iodide staining-based flow cytometric analysis; type: functional
[3] = tested on: MCF7; assay: Inhibition of tubulin beta polymerization in human MCF7 cells at IC50 after 18 to 24 hrs by spectrophotometric method relative to control; type: cell-based
[4] = tested on: MCF7; assay: Induction of apoptosis in human MCF7 cells assessed as viable cells at IC50 after 24 hrs by annexin V/FITC-propidium iodide staining-based flow cytometric method (reference value: 96.57%); type: functional
[5] = Antiproliferative activity against human Hs 371.T cells after 48 hrs by MTT assay; type: cell-based
[6] = target: T1, DNA topoisomerase 2-beta (Homo sapiens, UniProt Q02880); assay: Inhibition of human DNA topoisomerase 2beta after 2 hrs by ELISA
[7] = tested on: MCF7; assay: Induction of apoptosis in human MCF7 cells assessed as early apoptotic cells at IC50 after 24 hrs by annexin V/FITC-propidium iodide staining-based flow cytometric method (reference value: 0.72%); type: functional
[8] = tested on: MCF7; assay: Induction of apoptosis in human MCF7 cells assessed as late apoptotic cells at IC50 after 24 hrs by annexin V/FITC-propidium iodide staining-based flow cytometric method (reference value: 0.34%); type: functional
[9] = tested on: MCF7; assay: Upregulation of caspase3/7 level in human MCF7 cells at IC50 assessed as caspase 3/7 green fluorescence incubated for 24 hrs by green flow cytometric analysis (reference value: 0.49%); type: functional
[10] = tested on: MCF7; assay: Potency index, ratio of ratio of compound effect to podophyllotoxin efect for induction of apoptosis in human MCF7 cells; type: functional
[11] = tested on: MCF7; assay: Cell cycle arrest in human MCF7 cells assessed as increase in accumulation at G0 phase at IC50 after 24 hrs by propidium iodide staining-based flow cytometric analysis; type: functional
[12] = tested on: MCF7; assay: Upregulation of caspase3/7 level in human MCF7 cells at IC50 incubated for 24 hrs by green flow cytometric analysis relative to control; type: functional
[13] = tested on: MCF7; assay: Upregulation of p53 level in human MCF7 cells at IC50 incubated for 24 hrs by ELISA relative to control; type: functional
[14] = tested on: MCF7; assay: Upregulation of p53 level in human MCF7 cells at IC50 incubated for 24 hrs by ELISA relative to podophyllotoxin; type: functional
[15] = tested on: MCF7; assay: Potency index, ratio of ratio of compound effect to podophyllotoxin efect for cell cycle arrest in human MCF7 cells assessed as increase in cell percentage at G0 phase at IC50 after 24 hrs by propidium iodide staining-based flow cytometric analysis; type: functional
[16] = tested on: MCF7; assay: Down regulation of Bcl-2 level in human MCF7 cells at IC50 incubated for 24 hrs by ELISA; type: functional, cell-based
[17] = target: T1, DNA topoisomerase 2-beta; assay: Potency index, ratio of etopside IC50 to compound IC50 for topoisomerase 2beta in human MCF7 cells; type: cell-based
[18] = tested on: MCF7; assay: Upregulation of Bax level in human MCF7 cells at IC50 incubated for 24 hrs by ELISA relative to control; type: functional
[19] = tested on: MCF7; assay: Induction of apoptosis in human MCF7 cells assessed as necrotic cells at IC50 after 24 hrs by annexin V/FITC-propidium iodide staining-based flow cytometric method (reference value: 0.53%); type: functional
[20] = tested on: MCF7; assay: Cell cycle arrest in human MCF7 cells assessed as decrease in accumulation at G1 phase at IC50 after 24 hrs by propidium iodide staining-based flow cytometric analysis; type: functional
[21] = tested on: MCF7; assay: Potency index, ratio of podophyllotoxin IC50 to compound IC50 for human MCF7 cells; type: functional
[22] = tested on: MCF7; assay: Increase in Bax/Bcl-2 ratio in human MCF7 cells at IC50 incubated for 24 hrs by ELISA; type: functional, cell-based

T1 sequence (Q02880 whole entry): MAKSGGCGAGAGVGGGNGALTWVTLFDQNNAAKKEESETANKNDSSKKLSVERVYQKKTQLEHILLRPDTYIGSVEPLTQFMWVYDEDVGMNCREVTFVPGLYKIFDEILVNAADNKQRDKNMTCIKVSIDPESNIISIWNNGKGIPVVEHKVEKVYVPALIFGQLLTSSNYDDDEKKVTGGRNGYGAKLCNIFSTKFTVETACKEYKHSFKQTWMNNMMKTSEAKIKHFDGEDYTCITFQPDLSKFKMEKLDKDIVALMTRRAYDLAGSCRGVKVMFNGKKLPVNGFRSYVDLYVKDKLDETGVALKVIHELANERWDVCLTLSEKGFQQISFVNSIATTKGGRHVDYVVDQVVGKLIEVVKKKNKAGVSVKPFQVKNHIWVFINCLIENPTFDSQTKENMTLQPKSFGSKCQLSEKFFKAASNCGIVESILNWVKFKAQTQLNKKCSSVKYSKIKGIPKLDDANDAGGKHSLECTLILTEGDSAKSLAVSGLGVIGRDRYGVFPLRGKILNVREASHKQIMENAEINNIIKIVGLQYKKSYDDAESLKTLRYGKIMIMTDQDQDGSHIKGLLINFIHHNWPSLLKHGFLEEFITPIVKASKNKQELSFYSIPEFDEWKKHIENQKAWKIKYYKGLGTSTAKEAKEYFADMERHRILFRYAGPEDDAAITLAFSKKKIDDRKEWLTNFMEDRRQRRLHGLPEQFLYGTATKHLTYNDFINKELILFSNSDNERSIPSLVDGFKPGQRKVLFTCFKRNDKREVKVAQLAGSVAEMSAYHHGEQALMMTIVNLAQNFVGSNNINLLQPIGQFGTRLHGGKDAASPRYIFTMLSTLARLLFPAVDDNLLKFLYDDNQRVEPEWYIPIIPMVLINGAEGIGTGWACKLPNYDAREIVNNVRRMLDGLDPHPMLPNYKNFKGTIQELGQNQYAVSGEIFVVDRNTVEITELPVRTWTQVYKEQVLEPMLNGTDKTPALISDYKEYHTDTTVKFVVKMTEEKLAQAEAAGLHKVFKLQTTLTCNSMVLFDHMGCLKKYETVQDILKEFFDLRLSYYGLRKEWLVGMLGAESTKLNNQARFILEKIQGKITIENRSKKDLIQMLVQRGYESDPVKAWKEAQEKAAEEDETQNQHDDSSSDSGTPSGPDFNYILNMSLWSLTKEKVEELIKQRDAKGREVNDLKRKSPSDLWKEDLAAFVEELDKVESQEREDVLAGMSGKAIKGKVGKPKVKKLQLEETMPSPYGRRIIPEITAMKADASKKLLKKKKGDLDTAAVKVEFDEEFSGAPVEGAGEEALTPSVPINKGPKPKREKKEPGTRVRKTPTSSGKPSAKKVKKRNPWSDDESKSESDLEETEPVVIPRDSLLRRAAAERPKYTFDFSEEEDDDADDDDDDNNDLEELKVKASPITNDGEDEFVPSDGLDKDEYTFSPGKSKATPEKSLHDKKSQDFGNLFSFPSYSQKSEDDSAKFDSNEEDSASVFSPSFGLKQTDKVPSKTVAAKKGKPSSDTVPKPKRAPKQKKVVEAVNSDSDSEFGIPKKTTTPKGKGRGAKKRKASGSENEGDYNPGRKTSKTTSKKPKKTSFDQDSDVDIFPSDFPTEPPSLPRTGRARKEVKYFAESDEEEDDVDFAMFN

Row | SMILES | IC50 [1] [µM] | inhibition [3] [%] | IC50 [5] [µM] | Activity [7] [%] | Activity [8] [%] | Activity [9] [%] | Activity [19] [%] | further results
1 | COc1ccc(C2=N/C(=C\c3cc(Br)cc(Br)c3OC(C)=O)C(=O)NN2C(N)=S)cc1OC | 13.4 |  |  |  |  |  |  | 
2 | CC(=O)Oc1c(Br)cc(Br)cc1/C=C1\N=C(c2ccccc2)N(c2ccccc2)NC1=O | 19.4 |  |  |  |  |  |  | 
3 | COc1ccc(C2=N/C(=C\c3cc(Br)cc(Br)c3OC(C)=O)C(=O)n3c(C)nc(=S)n32)cc1OC | 6.84 |  |  |  |  |  |  | 
4 | COc1ccc(C2=N/C(=C\c3cc(Br)cc(Br)c3OC(C)=O)C(=O)NN2c2ncc(-c3ccccc3)s2)cc1OC | 4.33 |  |  |  |  |  |  | 
5 | COc1cc(C2=N/C(=C\c3cc(Br)cc(Br)c3OC(C)=O)C(=O)NN2c2ccccc2)cc(OC)c1OC | 0.35 | 33.4 | 44.3 | 5.47 | 7.85 | 11.28 | 3.14 | Activity [2]: Active; Activity [4]: 81.41%; IC50 [6]: 0.0126 µM; Ratio [10]: 1.5; Activity [11]: Active; fold change (FC) [12]: 18; fold change (FC) [13]: 1.9; fold change (FC) [14]: 2.1; Ratio [15]: 1.4; Activity [16]: Active; Ratio IC50 [17]: 5.3; fold change (FC) [18]: 3.9; Activity [20]: Active; Ratio IC50 [21]: 6; Activity [22]: Active
6 | COc1cc(C2=N/C(=C\c3cc(Br)cc(Br)c3OC(C)=O)C(=O)NN2C(N)=S)cc(OC)c1OC | 0.36 | 44.4 | 61.3 | 4.78 | 10.88 | 8.69 | 3.66 | Activity [2]: Active; Activity [4]: 78.79%; IC50 [6]: 0.0317 µM; Ratio [10]: 1.25; Activity [11]: Active; fold change (FC) [12]: 21.6; fold change (FC) [13]: 8.1; fold change (FC) [14]: 1.7; Activity [16]: Active; Ratio IC50 [17]: 2.2; fold change (FC) [18]: 3.2; Activity [20]: Active; Ratio IC50 [21]: 6; Activity [22]: Active
7 | COc1ccc(C(=O)N/C(=C/c2cc(Br)cc(Br)c2OC(C)=O)C(=O)NNC(N)=S)cc1OC | 8.97 |  |  |  |  |  |  | 
8 | CC(=O)Oc1c(Br)cc(Br)cc1/C=C1\N=C(c2ccccc2)N(C(N)=S)NC1=O | 28.5 |  | 80.1 |  |  |  |  | 
9 | COc1ccc(C2=N/C(=C\c3cc(Br)cc(Br)c3OC(C)=O)C(=O)NN2c2ncc(-c3ccc(Br)cc3)s2)cc1OC | 3.28 |  |  |  |  |  |  | 
10 | COc1cc(C2=N/C(=C\c3cc(Br)cc(Br)c3OC(C)=O)C(=O)n3c(C)nc(=S)n32)cc(OC)c1OC | 3.07 | 88.2 | 58.7 | 3.38 | 4.53 | 7.58 | 1.73 | Activity [4]: 88.4%; IC50 [6]: 0.11 µM; fold change (FC) [12]: 31.3; fold change (FC) [13]: 5.1; Activity [16]: Active; fold change (FC) [18]: 0.9
11 | CC(=O)Oc1c(Br)cc(Br)cc1/C=C1\N=C(c2ccccc2)n2c(=S)nc(C)n2C1=O | > 100 |  |  |  |  |  |  | 
12 | COc1cc(C(=O)N/C(=C/c2cc(Br)cc(Br)c2OC(C)=O)C(=O)NNC(N)=S)cc(OC)c1OC | 2.85 | 62.3 |  | 4.66 | 5.62 | 6.91 | 2.11 | IC50 [6]: 0.0814 µM; fold change (FC) [12]: 24.1; fold change (FC) [13]: 4.2; Activity [16]: Active; fold change (FC) [18]: 2.2; Activity [22]: Active
13 | CC(=O)Oc1c(Br)cc(Br)cc1/C=C1\N=C(c2ccccc2)N(c2ncc(-c3ccc(Br)cc3)s2)NC1=O | 9.49 |  |  |  |  |  |  | 
14 | CC(=O)Oc1c(Br)cc(Br)cc1/C=C(/NC(=O)c1ccccc1)C(=O)NNC(N)=S | 16.8 |  |  |  |  |  |  | 
15 | CC(=O)Oc1c(Br)cc(Br)cc1/C=C1\N=C(c2ccccc2)N(c2ncc(-c3ccccc3)s2)NC1=O | 38.3 |  |  |  |  |  |  | 
16 | COc1cc(C2=N/C(=C\c3cc(Br)cc(Br)c3OC(C)=O)C(=O)NN2c2ncc(-c3ccccc3)s2)cc(OC)c1OC | 0.41 | 55.2 | 77.4 | 3.64 | 6.33 | 7.79 | 3.31 | Activity [2]: Active; Activity [4]: 84.46%; IC50 [6]: 0.00685 µM; Activity [11]: Active; fold change (FC) [12]: 15.6; fold change (FC) [13]: 9.2; fold change (FC) [14]: 1.75; Activity [16]: Active; Ratio IC50 [17]: 10.2; fold change (FC) [18]: 3.4; Activity [20]: Active; Ratio IC50 [21]: 6; Activity [22]: Active
17 | COc1cc(C2=N/C(=C\c3cc(Br)cc(Br)c3OC(C)=O)C(=O)NN2c2ncc(-c3ccc(Br)cc3)s2)cc(OC)c1OC | 3.16 |  |  |  |  |  |  | 
18 | COc1ccc(C2=N/C(=C\c3cc(Br)cc(Br)c3OC(C)=O)C(=O)NN2c2ccccc2)cc1OC | 5.39 |  |  |  |  |  |  | 
19 | COc1cc([C@@H]2c3cc4c(cc3[C@H](O)[C@H]3COC(=O)[C@H]23)OCO4)cc(OC)c1OC [PODOFILOX] | 2.21 | 96.3 | 22.4 | 4.19 | 7.02 | 7.58 | 2.06 | Activity [4]: 84.61%
